The values below are quoted from earlier work in patent US20130035357A1, “Compositions and Methods for Preventing Joint Destruction in Osteoarthritis” (TRUSTEES OF DARTMOUTH COLLEGE, priority 2010, published 2013).

Data set [1] concerns retinoid acid receptors (RARs; e.g., RARα, RARβ, and RARγ).
Data set [2] relates to MMP-1.
The test system of data set [3] is MMP-13.
Data set [4] relates to IL-1β-stimulated SW-1353 cells.
For data set [5], the system named is RXRα, RXRβ, and RXRγ receptors.
[6] abbreviates: human chondrocytic cells in vitro.
[7] abbreviates: in vitro, by decreasing the transcription rate of the gene.

Regarding `C=C(c1ccc(C(=O)O)cc1)c1cc2c(cc1C)C(C)(C)CCC2(C)C` [Bexarotene, bexarotene], the “activity to bind retinoid acid receptors and to transactivate the related RAR genes” value in data set [1] is “negligible activity”.

With `Cc1cc2c(cc1C1(c3ccc(C(=O)O)cn3)CC1)C(C)(C)CCC2(C)C` [LG268], the “production of mRNA and protein for MMP-1” value in data set [2] (setting [6]) is listed as “inhibit”. Further, the “inhibition of proinflammatory cytokine-induced upregulation of MMP-1” value in data set [2] (setting [7]) is reported as “inhibit”. Moreover, in data set [3] (setting [6]), the “production of mRNA and protein for MMP-13” value was “inhibit”. The “inhibition of proinflammatory cytokine-induced upregulation of MMP-13” value in data set [3] (setting [7]) is “inhibit”. In addition, the “breakdown of collagen by the cells” value in data set [4] (setting [6]) was “prevented breakdown of collagen”. Besides, in data set [4] (in vitro), the “ability of IL-1β-stimulated SW-1353 cells to degrade collagen matrix” value is given as “blunt”. For the same compound, the “potency as an RXR agonist relative to bexarotene” value in data set [5] (compared with bexarotene) is “almost an order of magnitude more potent than bexarotene”. Besides, the “potency as an agonist across RXRα, RXRβ, and RXRγ receptors” value in data set [5] (comparison between the three RXR subtypes) is reported as “equal potency”.
